Assay results from patent publication EP1100483B1, “GLUCOCORTICOID-SELECTIVE ANTI-INFLAMMATORY AGENTS” (Abbott Laboratories, priority 1998, dated 2000).

Biological target: T1, human glucocorticoid receptor-α [GRX] isoform (Homo sapiens, UniProt P04150)
T1 construct: purchased Ligand Pharmaceuticals (San Diego, CA); host or cells: insect SF21 cells (baculovirus)
T1 sequence (P04150 1-777): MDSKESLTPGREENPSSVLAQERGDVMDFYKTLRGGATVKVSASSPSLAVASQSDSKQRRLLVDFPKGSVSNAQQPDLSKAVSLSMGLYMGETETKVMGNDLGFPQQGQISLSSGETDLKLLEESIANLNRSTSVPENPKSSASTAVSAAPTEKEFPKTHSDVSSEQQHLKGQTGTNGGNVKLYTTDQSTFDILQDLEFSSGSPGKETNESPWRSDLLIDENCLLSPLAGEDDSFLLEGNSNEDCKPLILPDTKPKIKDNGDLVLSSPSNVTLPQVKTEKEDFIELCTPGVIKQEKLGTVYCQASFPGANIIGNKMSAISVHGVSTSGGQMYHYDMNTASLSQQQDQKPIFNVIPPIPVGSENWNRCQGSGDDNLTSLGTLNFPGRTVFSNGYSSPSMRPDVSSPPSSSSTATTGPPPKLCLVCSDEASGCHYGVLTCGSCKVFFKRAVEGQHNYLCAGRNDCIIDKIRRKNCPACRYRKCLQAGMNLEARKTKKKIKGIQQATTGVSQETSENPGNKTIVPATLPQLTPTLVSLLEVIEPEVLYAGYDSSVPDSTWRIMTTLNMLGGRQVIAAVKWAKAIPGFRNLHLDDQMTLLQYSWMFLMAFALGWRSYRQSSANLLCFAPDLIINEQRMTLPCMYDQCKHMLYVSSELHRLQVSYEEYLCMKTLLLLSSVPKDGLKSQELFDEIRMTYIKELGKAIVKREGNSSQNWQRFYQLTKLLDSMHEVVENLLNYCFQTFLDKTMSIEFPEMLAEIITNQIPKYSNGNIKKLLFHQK
Assay: glucocorticoid receptor (GR) cytosol binding assay, [3H]-dexamethasone competition
Conditions: not given
Source text: For glucocorticoid receptor (OR) cytosol binding assays, the procedure described in Anal. […] Briefly, cytosol preparations of human glucocorticoid receptor-α [GRX] isoform and human progesterone receptor-A [PRA] isoform were obtained from Ligand Pharmaceuticals (San Diego, CA). Both receptor cDNAs were cloned into baculovirus expression vectors and expressed in insect SF21 cells. […] Glass fiber type C multiscreen MAFC NOB plates were from Millipore ( Burlington, MA). Hydroxyapatide Bio-Gel HTP gel was obtained from Bio-Rad Laboratories (Hercules. CA). Tris(hydroxymethyl)aminomethane (Tris), ethylenediaminetetraacetic acid (EDTA), glycerol, dithiothreitol (DTT) and sodium moylybdate were obtained from Sigma Chemicals (St. Louis, MO). Microscint-20 scintillation fluid was obtained from Packard Instrument (Meriden, CT). […] GRX and PRA binding reactions were performed in Millipore Multiscreen plates. […] Specific binding was defined as the difference between binding of [^3H]Dex in the absence and in the presence of 1µM unlabeled Dex. After an overnight incubation, 50 µL of hydroxyapatite (25 % weight/volume) slurry were added to each well and plates were incubated for 10 min at 4 °C in a plate shaker. Plates were suctioned with a Millipore vacuum manifold and each well was rinsed with 300 µL of ice-cold binding buffer. A 250 µL aliquot of Packard Microscint-20 was added to each well and the wells were shaken at room temperature for 20 minutes. The amount of radioactivity was determined with a Packard TopCount plate reader.

| Compound | Ki |
| --- | --- |
| CN(C)c1ccc(C(c2ccc(N3CCCC3)cc2)c2cc([N+](=O)[O-])ccc2Cl)cc1 (stereo not shown) [Example 41, 4'-dimethylamino-4"-(N-pyrrolidinyl)-2-chloro-5-nitrotriphenylmethane] | 4490 nM |
| CN(C)c1ccc(C(c2ccc(N(C)CCOC(=O)c3ccccc3)cc2)c2cc([N+](=O)[O-])ccc2Cl)cc1 (stereo not shown) [Example 50, 4'-dimethylamino-4"-(N-methyl-N-(2-benzoyloxyethyl)amino)-2-chloro-5-nitrotriphenylmethane] | 1630 nM |
| CN(C)c1ccc(C(c2ccc(N(C)C)cc2)c2ccccc2F)cc1 [Example 25, 4',4" bis(dimethylamino)-2-fluorotriphenylmethane] | 5270 nM |

Same assay, conditions: [3H]-Dex ~0.9 nM, GRX cytosol, 4 °C overnight; Cheng-Prusoff; read-out: Ki (nM) GR

| Ki | Compound |
| --- | --- |
| 4600 nM | CN(C)c1ccc(C(c2ccc(N(C)C)cc2)c2cc(N(S(C)(=O)=O)S(C)(=O)=O)ccc2Cl)cc1 [Example 63, 4',4" bis(dimethylamino)-2-chloro-5-(dimethylsulphonimido)triphenylmethane] |
| 1790 nM | CN(C)c1ccc(C(c2ccc(N(C)C)cc2)c2cc(N=Cc3ccco3)ccc2Cl)cc1 [Example 65, 4',4" bis(dimethylamino)-2-chloro-5-(2-furanylmethylimino)triphenylmethane] |
| 725 nM | CN(C)c1ccc(C(c2ccc(N(C)C)cc2)c2cc(Br)ccc2Cl)cc1 [Example 34, 4',4" bis(dimethylamino)-5-bromo-2-chlorotriphenylmethane] |
| 4300 nM | CN(C)c1ccc(C(c2ccccc2)c2ccccc2Cl)cc1 (stereo not shown) [Example 58, 4'-dimethylamino-2-chlorotriphenylmethane] |
| 2030 nM | CN(C)c1ccc(C(O)(c2ccccc2)c2ccccc2Cl)cc1 (stereo not shown) [Example 57, 4'-dimethylamino-2-chlorotriphenylmethanol] |

Continued, compound first:

| Compound | Ki |
| --- | --- |
| CN(C)c1ccc(C(c2ccc(N(C)C)cc2)c2cccc([N+](=O)[O-])c2)cc1 [Example 9, 4',4" bis(dimethylamino)-3-nitrotriphenylmethane] | 1380 nM |
| O=[N+]([O-])c1ccc(Cl)c(C(c2ccc(N3CCCCC3)cc2)c2ccc(N3CCCCC3)cc2)c1 [Example 13, 4',4" bis(N-piperidinyl)-2-chloro-5-nitrotriphenylmethane] | 5000 nM |
